Four compounds from paper PMC10552471 (ACS Omega, 2023) can be followed below.

Structures can show the parent of a compound that is named as a salt.

Common to all, as to format: biochemical
For experiment [1], the target named is T1, Plasmodium falciparum serine hydroxymethyltransferase (PfSHMT) (Plasmodium falciparum, UniProt Q8I566).
T1 sequence (Q8I566 1-442): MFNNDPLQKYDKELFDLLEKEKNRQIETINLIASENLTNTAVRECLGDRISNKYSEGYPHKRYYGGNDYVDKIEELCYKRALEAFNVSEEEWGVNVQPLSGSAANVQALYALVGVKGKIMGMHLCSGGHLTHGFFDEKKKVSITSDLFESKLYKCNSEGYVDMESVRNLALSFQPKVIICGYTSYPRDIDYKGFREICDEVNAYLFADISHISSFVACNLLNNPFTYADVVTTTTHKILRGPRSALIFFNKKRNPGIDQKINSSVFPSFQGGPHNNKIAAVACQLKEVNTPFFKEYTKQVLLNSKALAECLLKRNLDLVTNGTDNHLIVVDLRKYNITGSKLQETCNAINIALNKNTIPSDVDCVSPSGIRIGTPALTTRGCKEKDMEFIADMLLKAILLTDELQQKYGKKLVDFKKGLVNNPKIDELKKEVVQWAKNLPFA

In experiment [2] the target is T1, Plasmodium falciparum serine hydroxymethyltransferase (PfSHMT). The experiment in a line: MTHFD-coupled enzyme assay at a single concentration. The note with it: read-out: % inhibition at 100 μM.
Experiment [3] shares this target. The experiment can be described thus: MTHFD-coupled enzyme assay, […], […] to […] h incubation. The note with it: read-out: % inhibition at 100 μM.

With `C[C@@H]1[C@H](O)[C@@H](C)/C=C/C=C/C=C/C=C/C=C/C=C/C=C/[C@H](O[C@@H]2O[C@H](C)[C@@H](O)[C@H](N)[C@@H]2O)C[C@@H]2O[C@](O)(C[C@@H](O)C[C@@H](O)[C@H](O)CC[C@@H](O)C[C@@H](O)CC(=O)O[C@H]1C)C[C@H](O)[C@H]2C(=O)O` [amphotericin B], in experiment [1], the IC50 stood at 106 ± 1 µM.

For the compound `CO[C@H]1/C=C/O[C@@]2(C)Oc3c(C)c(O)c4c(c3C2=O)C2=NC3(CCN(CC(C)C)CC3)NC2=C(NC(=O)/C(C)=C\C=C\[C@H](C)[C@H](O)[C@@H](C)[C@@H](O)[C@@H](C)[C@H](OC(C)=O)[C@@H]1C)C4=O` [rifabutin], the inhibition at 100 µM in experiment [2] lay within 20 to 50%.

For the compound `CC(C)[C@@]1(NC(=O)[C@@H]2C[C@@H]3c4cccc5[nH]cc(c45)C[C@H]3N(C)C2)O[C@@]2(O)[C@@H]3CCCN3C(=O)[C@H](Cc3ccccc3)N2C1=O` [dihydroergocristine mesylate], the inhibition at 100 µM in experiment [2] fell in the range of 20 to 50%.

Consider `CO[C@H]1/C=C/O[C@@]2(C)Oc3c(C)c(O)c4c(O)c(c5c(nc6cc(C)ccn65)c4c3C2=O)NC(=O)/C(C)=C\C=C\[C@H](C)[C@H](O)[C@@H](C)[C@@H](O)[C@@H](C)[C@H](OC(C)=O)[C@@H]1C` [rifaximin], for which the inhibition at 100 µM in experiment [3] is around 60%.
